# Like-named read-outs stand apart in the source and are kept apart here.
# Key:
# [1] = tested on: Streptococcus pneumoniae ATCC 6301 (UNT012-2); test: Immunocompetent mouse pneumonia model; type: in vivo
# Experimental: The compound of Formula (II) was then evaluated against Streptococcus pneumoniae in an immunocompetent mouse pneumonia model to determine the compound's potential to treat acute respiratory infections. Briefly, CD-1 mice were infected intranasally with Streptococcus pneumoniae ATCC 6301 (UNT012-2) (1.5×10^6 CFU/mouse). The compound was delivered intravenously at 24 and 36 hours post-infection, and at doses ranging from 0.5 to 10 mg/kg/dose. At 48 hours post infection, treated mice were euthanized, lungs aseptically removed and processed for CFU titers
# Enterococcus faecium = test: MIC against contemporary clinical isolates; conditions: for % S (CLSI % susceptible) / MIC Range: n = 10, 50% VRE
# [2] = tested on: Staphylococcus aureus MSSA; test: MIC against contemporary clinical isolates; conditions: for % S (CLSI % susceptible) / MIC Range: MSSA (n = 20); for MIC50 / MIC90: Staphylococcus aureus, MSSA
# Enterococcus faecalis = test: MIC against contemporary clinical isolates; conditions: for % S (CLSI % susceptible) / MIC Range: n = 10, 50% VRE
# [3] = tested on: Staphylococcus aureus MRSA; test: MIC against contemporary clinical isolates; conditions: for % S (CLSI % susceptible) / MIC Range: MRSA (n = 20); for MIC50 / MIC90: Staphylococcus aureus, MRSA
# [4] = tested on: Staphylococcus aureus Linezolid^R; test: MIC against contemporary clinical isolates; conditions: Linezolid^R (n = 5)
# Streptococcus agalactiae = test: MIC against contemporary clinical isolates; conditions: for MIC50 / MIC90: Streptococcus agalactiae; for % S (CLSI % susceptible) / MIC Range: n = 10
# Streptococcus pyogenes = test: MIC against contemporary clinical isolates; conditions: for MIC50 / MIC90: Streptococcus pyogenes; for % S (CLSI % susceptible) / MIC Range: n = 10
# [5] = tested on: Staphylococcus aureus Daptomycin^NS; test: MIC against contemporary clinical isolates; conditions: Daptomycin^NS (n = 5)
# [6] = tested on: Staphylococcus epidermidis; test: MIC against contemporary clinical isolates; conditions: for MIC50 / MIC90: Staphylococcus epidermidis; for % S (CLSI % susceptible) / MIC Range: n = 20
# [7] = tested on: Viridans Group Streptococci; test: MIC against contemporary clinical isolates; conditions: n = 5
# Streptococcus pneumoniae = test: MIC against contemporary clinical isolates; conditions: for MIC50 / MIC90: Streptococcus pneumoniae, PRSP; for MIC Range / % S (CLSI % susceptible): n = 20, 28.6% PSSP, 33.3% PISP, 38.1% PRSP
# [8] = tested on: Staphylococcus aureus VISA; test: MIC against contemporary clinical isolates; conditions: for MIC50 / MIC90: Staphylococcus aureus, VISA; for % S (CLSI % susceptible) / MIC Range: VISA (n = 10)
# Bacillus anthracis = type: cell-based
# CYP2D6 = CYP2D6 (Homo sapiens (Human), UniProt P10635); test: in vitro; conditions: liver microsomes, pH 7.4
# Chain of CYP2D6 (P10635 whole entry, looked up): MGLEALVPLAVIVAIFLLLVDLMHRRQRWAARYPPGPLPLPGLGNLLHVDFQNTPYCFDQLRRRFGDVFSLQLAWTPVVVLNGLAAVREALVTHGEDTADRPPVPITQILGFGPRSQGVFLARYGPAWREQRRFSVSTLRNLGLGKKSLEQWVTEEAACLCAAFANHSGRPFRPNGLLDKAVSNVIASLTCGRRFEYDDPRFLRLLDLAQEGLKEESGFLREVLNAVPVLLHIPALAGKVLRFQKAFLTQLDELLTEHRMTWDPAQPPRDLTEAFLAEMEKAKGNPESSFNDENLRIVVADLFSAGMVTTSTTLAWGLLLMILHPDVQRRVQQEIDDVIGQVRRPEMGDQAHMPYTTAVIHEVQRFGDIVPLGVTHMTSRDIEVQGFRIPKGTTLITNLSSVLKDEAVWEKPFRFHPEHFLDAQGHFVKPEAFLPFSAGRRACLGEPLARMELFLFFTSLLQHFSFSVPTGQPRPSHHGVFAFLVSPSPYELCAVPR
# [9] = tested on: S. aureus MRSA ATCC 33591; test: Mouse septicemia protection assay; type: in vivo; conditions: CD-1 female mice, IV, QD single dose one hour post infection, survival after 48 hrs
# Experimental: CD-1 female mice were infected with 0.5 mL of bacterial suspension (3.28×10^7 CFU/mouse) via intraperitoneal injection, a concentration that achieves at least 90% mortality within 48 hours after infection. At one hour post infection, mice were treated with the compound intravenously with single doses and the results are shown in Table 12.
structure (smiles),measurement,setting,value
CC1(C)S[C@@H]2[C@H](NC(=O)[C@H](N)c3ccc(O)cc3)C(=O)N2[C@H]1C(=O)O [Amoxicillin],Log10 change from 24 hrs,[1]; 10 mg/kg/dose,−3.98 Log10
same,Log10 change from 48 hrs,[1]; 10 mg/kg/dose,−5.83 Log10
same,Mean Log10 CFU,"[1]; 10 mg/kg/dose IV at 24 and 36 hours post-infection, lungs at 48 hours",2.78 Log10 CFU
CCCCCCCCCC(=O)N[C@@H](Cc1c[nH]c2ccccc12)C(=O)N[C@H](CC(N)=O)C(=O)N[C@@H](CC(=O)O)C(=O)N[C@@H]1C(=O)NCC(=O)N[C@@H](CCCN)C(=O)N[C@@H](CC(=O)O)C(=O)N[C@H](C)C(=O)N[C@@H](CC(=O)O)C(=O)NCC(=O)N[C@H](CO)C(=O)N[C@@H]([C@H](C)CC(=O)O)C(=O)N[C@@H](CC(=O)c2ccccc2N)C(=O)O[C@@H]1C [Daptomycin],MIC50,Enterococcus faecium,0.5 µg/mL
same,MIC90,Enterococcus faecium,1 µg/mL
same,% S (CLSI % susceptible),Enterococcus faecium,100.0%
same,MIC Range,Enterococcus faecium,0.5-1^ μg/mL
same,% S (CLSI % susceptible),[2],100.0%
same,MIC Range,[2],0.12 to 0.25 µg/mL
same,MIC50,[2],0.25 µg/mL
same,MIC90,[2],0.25 µg/mL
same,MIC50,Enterococcus faecalis,0.25 µg/mL
same,MIC90,Enterococcus faecalis,0.5 µg/mL
same,% S (CLSI % susceptible),Enterococcus faecalis,90.0%
same,MIC Range,Enterococcus faecalis,0.12 to 8 µg/mL
same,% S (CLSI % susceptible),[3],100.0%
same,MIC Range,[3],0.12 to 0.25 µg/mL
same,MIC50,[3],0.25 µg/mL
same,MIC90,[3],0.25 µg/mL
same,% S (CLSI % susceptible),[4],100.0%
same,MIC Range,[4],0.25 to 0.5 µg/mL
same,MIC50,Streptococcus agalactiae,0.12 µg/mL
same,MIC90,Streptococcus agalactiae,0.12 µg/mL
same,% S (CLSI % susceptible),Streptococcus agalactiae,100.0%
same,MIC Range,Streptococcus agalactiae,0.06 to 0.25 µg/mL
same,MIC50,Streptococcus pyogenes,≤ 0.03 µg/mL
same,MIC90,Streptococcus pyogenes,0.06 µg/mL
same,% S (CLSI % susceptible),Streptococcus pyogenes,100.0%
same,MIC Range,Streptococcus pyogenes,≦0.03-0.06^ μg/mL
same,% S (CLSI % susceptible),[5],0.0%
same,MIC Range,[5],2 to 8 µg/mL
same,MIC50,[6],0.12 µg/mL
same,MIC90,[6],0.25 µg/mL
same,% S (CLSI % susceptible),[6],100.0%
same,MIC Range,[6],0.06 to 0.25 µg/mL
same,% S (CLSI % susceptible),[7],100.0%
same,MIC Range,[7],0.06 to 0.25 µg/mL
same,MIC50,Streptococcus pneumoniae,≤ 0.03 µg/mL
same,MIC90,Streptococcus pneumoniae,≤ 0.03 µg/mL
same,MIC Range,Streptococcus pneumoniae,≦0.03-0.06^ μg/mL
same,MIC50,[8],0.5 µg/mL
same,MIC90,[8],1 µg/mL
same,% S (CLSI % susceptible),[8],100.0%
same,MIC Range,[8],0.25 to 1 µg/mL
C[C@H]1c2cccc(O)c2C(=O)C2=C(O)[C@]3(O)C(=O)C(C(N)=O)=C(O)[C@@H](N(C)C)[C@@H]3[C@@H](O)[C@@H]21 [Doxycycline],MIC,Bacillus anthracis; B. anthracis NR-36,0.06 µg/mL
same,MIC,Bacillus anthracis; B. anthracis NR-38,0.125 µg/mL
same,MIC,Bacillus anthracis; B. anthracis NR-41,0.06 µg/mL
same,MIC,Bacillus anthracis; B. anthracis NR-46,0.125 µg/mL
same,MIC,Bacillus anthracis; B. anthracis NR-411,0.125 µg/mL
same,MIC,Bacillus anthracis; B. anthracis NR-412,0.03 µg/mL
same,MIC,Bacillus anthracis; B. anthracis NR-413,0.06 µg/mL
same,MIC,Bacillus anthracis; B. anthracis NR-414,0.125 µg/mL
same,MIC,Bacillus anthracis; B. anthracis NR-415,0.06 µg/mL
same,MIC,Bacillus anthracis; B. anthracis NR-3838,0.06 µg/mL
CC(=O)NC[C@H]1CN(c2ccc(N3CCOCC3)c(F)c2)C(=O)O1 [Linezolid],MIC50,Enterococcus faecium,2 µg/mL
same,MIC90,Enterococcus faecium,2 µg/mL
same,% S (CLSI % susceptible),Enterococcus faecium,100.0%
same,MIC Range,Enterococcus faecium,1 to 2 µg/mL
same,% S (CLSI % susceptible),[2],100.0%
same,MIC Range,[2],2 to 4 µg/mL
same,MIC50,[2],2 µg/mL
same,MIC90,[2],4 µg/mL
same,MIC50,Enterococcus faecalis,2 µg/mL
same,MIC90,Enterococcus faecalis,2 µg/mL
same,% S (CLSI % susceptible),Enterococcus faecalis,100.0%
same,MIC Range,Enterococcus faecalis,1 to 2 µg/mL
same,% S (CLSI % susceptible),[3],100.0%
same,MIC Range,[3],2 to 4 µg/mL
same,MIC50,[3],2 µg/mL
same,MIC90,[3],4 µg/mL
same,% S (CLSI % susceptible),[4],0.0%
same,MIC50,Streptococcus agalactiae,1 µg/mL
same,MIC90,Streptococcus agalactiae,1 µg/mL
same,% S (CLSI % susceptible),Streptococcus agalactiae,100.0%
same,MIC Range,Streptococcus agalactiae,0.5-2^ μg/mL
same,MIC50,Streptococcus pyogenes,1 µg/mL
same,MIC90,Streptococcus pyogenes,1 µg/mL
same,% S (CLSI % susceptible),Streptococcus pyogenes,100.0%
same,MIC Range,Streptococcus pyogenes,0.5-1^ μg/mL
same,% S (CLSI % susceptible),[5],80.0%
same,MIC Range,[5],1 to 32 µg/mL
same,MIC50,[6],2 µg/mL
same,MIC90,[6],2 µg/mL
same,% S (CLSI % susceptible),[6],100.0%
same,MIC Range,[6],1 to 4 µg/mL
same,% S (CLSI % susceptible),[7],100.0%
same,MIC Range,[7],0.5-1^ μg/mL
same,MIC50,Streptococcus pneumoniae,1 µg/mL
same,MIC90,Streptococcus pneumoniae,1 µg/mL
same,% S (CLSI % susceptible),Streptococcus pneumoniae,100.0%
same,MIC Range,Streptococcus pneumoniae,0.25 to 1 µg/mL
same,MIC50,[8],2 µg/mL
same,MIC90,[8],2 µg/mL
same,% S (CLSI % susceptible),[8],100.0%
same,MIC Range,[8],1 to 4 µg/mL
C=C[C@H]1C[N@@]2CC[C@H]1C[C@@H]2[C@@H](O)c1ccnc2ccc(OC)cc12 [Quinidine],"inhibition at 10 min, 0.1 µM",CYP2D6,60.6%
same,"inhibition at 10 min, 1 µM",CYP2D6,91.7%
CN[C@H](CC(C)C)C(=O)N[C@H]1C(=O)N[C@@H](CC(N)=O)C(=O)N[C@H]2C(=O)N[C@H]3C(=O)N[C@H](C(=O)N[C@H](C(=O)O)c4cc(O)cc(O)c4-c4cc3ccc4O)[C@H](O)c3ccc(c(Cl)c3)Oc3cc2cc(c3O[C@@H]2O[C@H](CO)[C@@H](O)[C@H](O)[C@H]2O[C@H]2C[C@](C)(N)[C@H](O)[C@H](C)O2)Oc2ccc(cc2Cl)[C@H]1O [Vancomycin],MIC50,Enterococcus faecium,0.5 µg/mL
same,MIC90,Enterococcus faecium,> 32 µg/mL
same,% S (CLSI % susceptible),Enterococcus faecium,50.0%
same,% S (CLSI % susceptible),[2],100.0%
same,MIC Range,[2],0.5-1^ μg/mL
same,MIC50,[2],0.5 µg/mL
same,MIC90,[2],1 µg/mL
same,MIC50,Enterococcus faecalis,1 µg/mL
same,MIC90,Enterococcus faecalis,> 32 µg/mL
same,% S (CLSI % susceptible),Enterococcus faecalis,50.0%
same,% S (CLSI % susceptible),[3],100.0%
same,MIC Range,[3],0.5-2^ μg/mL
same,MIC50,[3],0.5 µg/mL
same,MIC90,[3],1 µg/mL
same,% S (CLSI % susceptible),[4],100.0%
same,MIC Range,[4],1 µg/mL
same,MIC50,Streptococcus agalactiae,0.5 µg/mL
same,MIC90,Streptococcus agalactiae,0.5 µg/mL
same,% S (CLSI % susceptible),Streptococcus agalactiae,100.0%
same,MIC Range,Streptococcus agalactiae,0.25 to 0.5 µg/mL
same,MIC50,Streptococcus pyogenes,0.25 µg/mL
same,MIC90,Streptococcus pyogenes,0.25 µg/mL
same,% S (CLSI % susceptible),Streptococcus pyogenes,100.0%
same,MIC Range,Streptococcus pyogenes,0.25 µg/mL
same,% S (CLSI % susceptible),[5],40.0%
same,MIC Range,[5],0.5-8^ μg/mL
same,MIC50,[6],2 µg/mL
same,MIC90,[6],2 µg/mL
same,% S (CLSI % susceptible),[6],100.0%
same,MIC Range,[6],1 to 2 µg/mL
same,% S (CLSI % susceptible),[7],100.0%
same,MIC Range,[7],0.25 to 0.5 µg/mL
same,PD50,[9],~2.75 mg/kg
same,PD50,[9]; listed as vancomycin,~2.75 mg/kg
same,MIC50,Streptococcus pneumoniae,0.25 µg/mL
same,MIC90,Streptococcus pneumoniae,0.25 µg/mL
same,% S (CLSI % susceptible),Streptococcus pneumoniae,100.0%
same,MIC Range,Streptococcus pneumoniae,0.12 to 0.5 µg/mL
same,MIC50,[8],4 µg/mL
same,MIC90,[8],8 µg/mL
same,% S (CLSI % susceptible),[8],10.0%
same,MIC Range,[8],1 to 8 µg/mL
